Converted amounts (≈) assume the structure as drawn. The source made the active and inactive calls. No cut-off for these calls is given here.
Key:
Plasmodium falciparum = experiment: Antimalarial activity against multidrug-resistant Plasmodium falciparum K1 by microculture radioisotope technique; format: functional, organism-based
MCF7 = experiment: Cytotoxicity against human MCF7 cells by resazurin microplate assay; format: functional, cell-based
[1] = test system: Mycobacterium tuberculosis; experiment: Antimycobacterial activity against Mycobacterium tuberculosis H37Ra by green fluorescent protein microplate assay; format: functional
NCI-H187 = experiment: Cytotoxicity against human NCI-H187 cells by resazurin microplate assay; format: functional, cell-based
Vero = experiment: Cytotoxicity against african green monkey Vero cells by green fluorescent protein microplate assay; format: cell-based; details: chlorocebus sabaeus
KB = experiment: Cytotoxicity against human KB cells by resazurin microplate assay; format: functional, cell-based

| SMILES | Activity (Plasmodium falciparum) | Activity (MCF7) | Activity [1] | Activity (NCI-H187) | Activity (Vero) | Activity (KB) | IC50 (Plasmodium falciparum) | MIC [1] | IC50 (Vero) | also measured |
| --- | --- | --- | --- | --- | --- | --- | --- | --- | --- | --- |
| C=C(C)[C@H]1CC[C@]2(C)[C@H]3CC[C@@H]4[C@@]5(C)CC[C@H](OC(C)=O)C(C)(C)[C@@H]5CC[C@@]4(C)[C@]3(C)[C@@H](O)C[C@@H]12 | inactive | inactive | inactive | inactive | Non-toxic | inactive | – | – | – | – |
| CC(C)(O)[C@H]1CC[C@]2(C)[C@H]3CC[C@@H]4[C@@]5(C)CC[C@H](O)C(C)(C)[C@@H]5C[C@H](O)[C@@]4(C)[C@]3(C)[C@@H](O)C[C@@H]12 | – | – | – | – | – | – | 12 µM | 50 µg/mL (≈ 105 µM) | 47 µM | IC50 (MCF7): > 105 µM; IC50 (NCI-H187): 12 µM; IC50 (KB): 28 µM |
| CC(=O)O[C@H]1CC[C@]2(C)[C@H]3CC[C@@H]4[C@@]5(C)CC[C@H](C(C)(C)O)[C@@H]5C[C@H](O)[C@@]4(C)[C@]3(C)[C@@H](O)C[C@H]2C1(C)C | – | – | – | – | – | – | 5.2 µM | 6.25 µg/mL (≈ 12 µM) | 13 µM | IC50 (MCF7): > 96 µM; IC50 (NCI-H187): 11 µM; IC50 (KB): 56 µM |
| CC(C)(O)[C@H]1CC[C@]2(C)[C@H]3CC[C@@H]4[C@@]5(C)CC[C@H](O)C(C)(C)[C@@H]5CC[C@@]4(C)[C@]3(C)[C@@H](O)C[C@@H]12 | – | – | – | – | Non-toxic | – | – | > 50 µg/mL | – | – |
| CC(=O)O[C@H]1CC[C@]2(C)[C@H]3CC[C@@H]4[C@@]5(C)CC[C@H](C(C)(C)O)[C@@H]5C[C@H](O)[C@@]4(C)[C@]3(C)CC[C@H]2C1(C)C | – | – | – | – | Non-toxic | – | – | 12.5 µg/mL (≈ 24.9 µM) | – | – |
| CC(C)(O)[C@H]1CC[C@]2(C)[C@H]3CC[C@@H]4[C@@]5(C)CCCC(C)(C)[C@@H]5CC[C@@]4(C)[C@]3(C)[C@@H](O)C[C@@H]12 | – | – | – | – | Non-toxic | – | – | 12.5 µg/mL (≈ 28.1 µM) | – | – |
| C=C(C)[C@H]1CC[C@]2(C)[C@H]3CC[C@@H]4[C@@]5(C)CCCC(C)(C)[C@@H]5C[C@H](O)[C@@]4(C)[C@]3(C)[C@@H](O)C[C@@H]12 (relative stereo) | inactive | inactive | inactive | inactive | Non-toxic | inactive | – | – | – | – |
| C[C@H]1[C@@H](O)O[C@@H]2O[C@@]3(C)CC[C@H]4[C@H](C)CC[C@@H]1[C@@]24OO3 [ARTENIMOL] | – | – | – | – | – | – | 0.0011 µM | – | – | – |
| Cc1c2ccncc2c(C)c2c1[nH]c1ccccc12 [ELLIPTECINE] | – | – | – | – | – | – | – | – | 9.8 µM | – |
| CC(C)(O)[C@H]1CC[C@H]([C@H]2CC[C@@]3(C)C4=CC[C@H]5C(C)(C)[C@@H](O)CC[C@]5(C)C4=CC[C@]23C)CO1 [HYPOCRELLOL A] | inactive | inactive | inactive | inactive | Non-toxic | inactive | – | – | – | – |
| CC(=O)O[C@H]1CC[C@]2(C)C3=CC[C@]4(C)[C@@H]([C@H]5CC[C@H](C(C)(C)O)OC5)CC[C@@]4(C)C3=CC[C@H]2C1(C)C [HYPOCRELLOL B] | inactive | inactive | inactive | inactive | Non-toxic | inactive | – | – | – | – |
| CC(=O)O[C@H]1CC[C@]2(C)C3=C(CC[C@H]2C1(C)C)[C@]1(C)CC[C@H]([C@H]2CC[C@H](C(C)(C)O)OC2)[C@@]1(C)C[C@H]3O [HYPOCRELLOL D] | – | – | – | – | – | – | 8 µM | 50 µg/mL (≈ 96.8 µM) | 30 µM | IC50 (MCF7): 38 µM; IC50 (NCI-H187): 18 µM; IC50 (KB): 15 µM |
| NNC(=O)c1ccncc1 [ISONIAZID] | – | – | – | – | – | – | – | 0.0234 µg/mL (≈ 0.171 µM) | – | – |

— ChEMBL document CHEMBL1926505, “Lanostane and hopane triterpenes from the entomopathogenic fungus Hypocrella sp. BCC 14524” (J Nat Prod, 2011)
